Source: PubChem BioAssay (NCI)
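Interpolation was linear, between the two tested concentrations surrounding the appropriate level; five concentrations were tested over 48 hours in 96-well plates. TGI denotes the concentration required for complete inhibition of growth.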

Legend:
Assay in all cases: inhibition of tumour cell growth, NCI panel, 48 h
786-0 renal = tested on: 786-0 renal
A549 NSCLC = tested on: A549 NSCLC
ACHN renal = tested on: ACHN renal
BT-549 breast = tested on: BT-549 breast
CAKI-1 renal = tested on: CAKI-1 renal
CCRF-CEM leukemia = tested on: CCRF-CEM leukemia
COLO 205 colon = tested on: COLO 205 colon
DU-145 prostate = tested on: DU-145 prostate
EKVX NSCLC = tested on: EKVX NSCLC
HCC-2998 colon = tested on: HCC-2998 colon
HCT-116 colon = tested on: HCT-116 colon
HCT-15 colon = tested on: HCT-15 colon
HL-60(TB) leukemia = tested on: HL-60(TB) leukemia
HOP-62 NSCLC = tested on: HOP-62 NSCLC
HOP-92 NSCLC = tested on: HOP-92 NSCLC
HS 578T breast = tested on: HS 578T breast
HT29 colon = tested on: HT29 colon
IGROV1 ovarian = tested on: IGROV1 ovarian
K-562 leukemia = tested on: K-562 leukemia
KM12 colon = tested on: KM12 colon
M14 melanoma = tested on: M14 melanoma
MALME-3M melanoma = tested on: MALME-3M melanoma
MCF7 breast = tested on: MCF7 breast
MDA-MB-231 breast = tested on: MDA-MB-231 breast
MDA-MB-435 = tested on: MDA-MB-435
MDA-N = tested on: MDA-N
MOLT-4 leukemia = tested on: MOLT-4 leukemia
NCI-H226 lung = tested on: NCI-H226 lung
NCI-H23 lung = tested on: NCI-H23 lung
NCI-H460 lung = tested on: NCI-H460 lung
NCI-H522 lung = tested on: NCI-H522 lung
NCI/ADR-RES ovarian = tested on: NCI/ADR-RES ovarian
OVCAR-3 ovarian = tested on: OVCAR-3 ovarian
OVCAR-4 ovarian = tested on: OVCAR-4 ovarian
OVCAR-5 ovarian = tested on: OVCAR-5 ovarian
OVCAR-8 ovarian = tested on: OVCAR-8 ovarian
PC-3 prostate = tested on: PC-3 prostate
RPMI-8226 leukemia = tested on: RPMI-8226 leukemia
RXF 393 renal = tested on: RXF 393 renal
SF-268 CNS = tested on: SF-268 CNS
SF-295 CNS = tested on: SF-295 CNS
SF-539 CNS = tested on: SF-539 CNS
SK-MEL-2 melanoma = tested on: SK-MEL-2 melanoma
SK-MEL-28 melanoma = tested on: SK-MEL-28 melanoma
SK-MEL-5 melanoma = tested on: SK-MEL-5 melanoma
SK-OV-3 ovarian = tested on: SK-OV-3 ovarian
SN12C renal = tested on: SN12C renal
SNB-19 CNS = tested on: SNB-19 CNS
SW-620 colon = tested on: SW-620 colon
T-47D breast = tested on: T-47D breast
TK-10 renal = tested on: TK-10 renal
U251 CNS = tested on: U251 CNS
UACC-257 melanoma = tested on: UACC-257 melanoma
UACC-62 melanoma = tested on: UACC-62 melanoma
UO-31 renal = tested on: UO-31 renal
A498 renal = tested on: A498 renal
LOX IMVI melanoma = tested on: LOX IMVI melanoma
SNB-75 CNS = tested on: SNB-75 CNS

## O=S(=O)(O)c1ccc(N=Nc2ccc(N=Nc3c(O)c(S(=O)(=O)O)cc4cc(S(=O)(=O)O)ccc34)cc2)cc1
786-0 renal
  TGI: > 100 µM
A549 NSCLC
  TGI: > 100 µM
ACHN renal
  TGI: > 100 µM
BT-549 breast
  TGI: > 100 µM
CAKI-1 renal
  TGI: > 100 µM
CCRF-CEM leukemia
  TGI: > 100 µM
COLO 205 colon
  TGI: > 100 µM
DU-145 prostate
  TGI: > 100 µM
EKVX NSCLC
  TGI: > 100 µM
HCC-2998 colon
  TGI: > 100 µM
HCT-116 colon
  TGI: > 100 µM
HCT-15 colon
  TGI: > 100 µM
HL-60(TB) leukemia
  TGI: > 100 µM
HOP-62 NSCLC
  TGI: > 100 µM
HOP-92 NSCLC
  TGI: > 100 µM
HS 578T breast
  TGI: > 100 µM
HT29 colon
  TGI: > 100 µM
IGROV1 ovarian
  TGI: > 100 µM
K-562 leukemia
  TGI: > 100 µM
KM12 colon
  TGI: > 100 µM
M14 melanoma
  TGI: > 100 µM
MALME-3M melanoma
  TGI: > 100 µM
MCF7 breast
  TGI: > 100 µM
MDA-MB-231 breast
  TGI: > 100 µM
MDA-MB-435
  TGI: > 100 µM
MDA-N
  TGI: > 100 µM
MOLT-4 leukemia
  TGI: > 100 µM
NCI-H226 lung
  TGI: > 100 µM
NCI-H23 lung
  TGI: > 100 µM
NCI-H460 lung
  TGI: > 100 µM
NCI-H522 lung
  TGI: > 100 µM
NCI/ADR-RES ovarian
  TGI: > 100 µM
OVCAR-3 ovarian
  TGI: > 100 µM
OVCAR-4 ovarian
  TGI: > 100 µM
OVCAR-5 ovarian
  TGI: > 100 µM
OVCAR-8 ovarian
  TGI: > 100 µM
PC-3 prostate
  TGI: > 100 µM
RPMI-8226 leukemia
  TGI: > 100 µM
RXF 393 renal
  TGI: > 100 µM
SF-268 CNS
  TGI: > 100 µM
SF-295 CNS
  TGI: > 100 µM
SF-539 CNS
  TGI: > 100 µM
SK-MEL-2 melanoma
  TGI: > 100 µM
SK-MEL-28 melanoma
  TGI: > 100 µM
SK-MEL-5 melanoma
  TGI: > 100 µM
SK-OV-3 ovarian
  TGI: > 100 µM
SN12C renal
  TGI: > 100 µM
SNB-19 CNS
  TGI: > 100 µM
SW-620 colon
  TGI: > 100 µM
T-47D breast
  TGI: > 100 µM
TK-10 renal
  TGI: > 100 µM
U251 CNS
  TGI: > 100 µM
UACC-257 melanoma
  TGI: > 100 µM
UACC-62 melanoma
  TGI: > 100 µM
UO-31 renal
  TGI: > 100 µM

## CC(C)(C)c1ccc2c(c1)C(=O)c1ccccc1C2=O
786-0 renal
  TGI: > 100 µM
A498 renal
  TGI: > 100 µM
A549 NSCLC
  TGI: > 100 µM
ACHN renal
  TGI: > 100 µM
BT-549 breast
  TGI: > 100 µM
CAKI-1 renal
  TGI: > 100 µM
CCRF-CEM leukemia
  TGI: > 100 µM
COLO 205 colon
  TGI: 60.3 µM
DU-145 prostate
  TGI: > 100 µM
EKVX NSCLC
  TGI: 75.9 µM
HCT-116 colon
  TGI: > 100 µM
HCT-15 colon
  TGI: > 100 µM
HL-60(TB) leukemia
  TGI: > 100 µM
HOP-62 NSCLC
  TGI: > 100 µM
HOP-92 NSCLC
  TGI: 85 µM
HS 578T breast
  TGI: > 100 µM
HT29 colon
  TGI: 68.8 µM
IGROV1 ovarian
  TGI: > 100 µM
K-562 leukemia
  TGI: > 100 µM
KM12 colon
  TGI: > 100 µM
LOX IMVI melanoma
  TGI: > 100 µM
M14 melanoma
  TGI: > 100 µM
MALME-3M melanoma
  TGI: > 100 µM
MCF7 breast
  TGI: 66.3 µM
MDA-MB-231 breast
  TGI: > 100 µM
MDA-MB-435
  TGI: > 100 µM
MDA-N
  TGI: > 100 µM
MOLT-4 leukemia
  TGI: 65.8 µM
NCI-H226 lung
  TGI: 92.6 µM
NCI-H23 lung
  TGI: > 100 µM
NCI-H460 lung
  TGI: > 100 µM
NCI/ADR-RES ovarian
  TGI: > 100 µM
OVCAR-3 ovarian
  TGI: > 100 µM
OVCAR-4 ovarian
  TGI: > 100 µM
OVCAR-5 ovarian
  TGI: > 100 µM
OVCAR-8 ovarian
  TGI: > 100 µM
PC-3 prostate
  TGI: > 100 µM
RPMI-8226 leukemia
  TGI: > 100 µM
RXF 393 renal
  TGI: 80 µM
SF-268 CNS
  TGI: > 100 µM
SF-295 CNS
  TGI: > 100 µM
SF-539 CNS
  TGI: > 100 µM
SK-MEL-28 melanoma
  TGI: > 100 µM
SK-MEL-5 melanoma
  TGI: 40.2 µM
SK-OV-3 ovarian
  TGI: > 100 µM
SN12C renal
  TGI: > 100 µM
SNB-19 CNS
  TGI: > 100 µM
SNB-75 CNS
  TGI: 87 µM
SW-620 colon
  TGI: > 100 µM
T-47D breast
  TGI: > 100 µM
TK-10 renal
  TGI: > 100 µM
U251 CNS
  TGI: > 100 µM
UACC-257 melanoma
  TGI: > 100 µM
UACC-62 melanoma
  TGI: > 100 µM
UO-31 renal
  TGI: > 100 µM

## Oc1ccc2c(c1)OCC1c3ccccc3OC21 (stereo not given)
786-0 renal
  TGI: > 100 µM
A498 renal
  TGI: > 100 µM
ACHN renal
  TGI: > 100 µM
BT-549 breast
  TGI: > 100 µM
CAKI-1 renal
  TGI: > 100 µM
CCRF-CEM leukemia
  TGI: > 100 µM
COLO 205 colon
  TGI: > 100 µM
DU-145 prostate
  TGI: > 100 µM
EKVX NSCLC
  TGI: 86.7 µM
HCC-2998 colon
  TGI: > 100 µM
HCT-116 colon
  TGI: > 100 µM
HCT-15 colon
  TGI: > 100 µM
HL-60(TB) leukemia
  TGI: 83.4 µM
HOP-62 NSCLC
  TGI: > 100 µM
HOP-92 NSCLC
  TGI: > 100 µM
HS 578T breast
  TGI: > 100 µM
HT29 colon
  TGI: > 100 µM
IGROV1 ovarian
  TGI: > 100 µM
K-562 leukemia
  TGI: > 100 µM
KM12 colon
  TGI: > 100 µM
LOX IMVI melanoma
  TGI: > 100 µM
M14 melanoma
  TGI: > 100 µM
MCF7 breast
  TGI: > 100 µM
MDA-MB-231 breast
  TGI: > 100 µM
MDA-MB-435
  TGI: > 100 µM
MDA-N
  TGI: > 100 µM
MOLT-4 leukemia
  TGI: 65.2 µM
NCI-H226 lung
  TGI: > 100 µM
NCI-H23 lung
  TGI: > 100 µM
NCI-H460 lung
  TGI: > 100 µM
NCI/ADR-RES ovarian
  TGI: > 100 µM
OVCAR-3 ovarian
  TGI: > 100 µM
OVCAR-4 ovarian
  TGI: > 100 µM
OVCAR-5 ovarian
  TGI: > 100 µM
OVCAR-8 ovarian
  TGI: > 100 µM
PC-3 prostate
  TGI: > 100 µM
RPMI-8226 leukemia
  TGI: > 100 µM
RXF 393 renal
  TGI: > 100 µM
SF-268 CNS
  TGI: > 100 µM
SF-295 CNS
  TGI: > 100 µM
SF-539 CNS
  TGI: > 100 µM
SK-MEL-2 melanoma
  TGI: > 100 µM
SK-MEL-28 melanoma
  TGI: > 100 µM
SK-MEL-5 melanoma
  TGI: > 100 µM
SK-OV-3 ovarian
  TGI: > 100 µM
SN12C renal
  TGI: > 100 µM
SNB-19 CNS
  TGI: > 100 µM
SNB-75 CNS
  TGI: > 100 µM
SW-620 colon
  TGI: > 100 µM
T-47D breast
  TGI: > 100 µM
TK-10 renal
  TGI: > 100 µM
U251 CNS
  TGI: > 100 µM
UACC-257 melanoma
  TGI: > 100 µM
UACC-62 melanoma
  TGI: > 100 µM
UO-31 renal
  TGI: > 100 µM
